# Source: ChEMBL document CHEMBL1201862, “PubChem BioAssay data set” (2004)
# Activity calls are given as the source filed them.
# Assays:
# [1] = target: T1, Sentrin-specific protease 1 (Homo sapiens, UniProt Q9P0U3); assay: potency of human SENP1 inhibitors, dose response, biochemical, kinetic FRET (AID 651697); type: functional; details: read-out: IC50_Mean
# [2] = target: T1, Sentrin-specific protease 1; assay: Dose response confirmation of small molecule inhibitors of the catalytic domain of the SUMO protease, SENP1 in a FRET assay.; type: functional; details: read-out: IC50_Mean
# cells [3] = type: functional, cell-based
# [4] = target: T2, Trace amine-associated receptor 1 (Homo sapiens, UniProt Q96RJ0); assay: Counterscreen for agonists of the human trace amine associated receptor 1 (hTAAR1): Fluorescence-based cell-based high throughput dose response assay to identify hTAAR1 agonist that also desensitize TAAR1 receptor response.; type: functional
# cells [5] = type: functional, cell-based; remark: listed apart in the source
# [6] = target: T2, Trace amine-associated receptor 1; assay: Fluorescence-based cell-based high throughput dose response assay to identify agonists of the human trace amine associated receptor 1 (TAAR1).; type: functional
# [7] = target: COUP transcription factor 2 (Homo sapiens, UniProt P24468); assay: Luminescence-based cell-based high throughput dose response assay to identify inhibitors of COUP-TFII (NR2F2).; type: functional;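 further: HEK293 cells transiently cotransfected with COUP-TFII expression vector and reporter; luciferase reporter luminescence driven by COUP-TFII from the pX2-168 reporter plasmid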
# [8] = A Cell-Based Confirmatory Screen for Compounds that Inhibit VEEV, TC-83 (8).; type: functional
# [9] = target: Metabotropic glutamate receptor 3 (Rattus norvegicus, UniProt P31422); assay: mGlu3 NAM potency via calcium readout, dose response, mGlu3 NAM project, TREx293 cells, Galpha15, calcium flux (AID 651840); type: functional
# [10] = target: Scavenger receptor class B member 1 (Mus musculus, UniProt Q61009); assay: inhibitors of SR-BI-mediated HDL uptake, dose response, cell-based, ldlA[mSR-BI] CHO, DiI fluorescence, dry powder, set 10 (AID 624029); type: functional
# [11] = target: Disintegrin and metalloproteinase domain-containing protein 17 (Homo sapiens, UniProt P78536); assay: ADAM17 protease inhibitors, dose response, counter-screen for ADAM10 exosite inhibitor project, biochemical, quenched FRET substrate (AID 743253)
# [12] = ADAM10 inhibitors, peptide cleavage, dose response, biochemical, QFRET (AID 743254);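 further: ADAM10 enzyme with the DM2 quenched FRET peptide as substrate; EDANS fluorescence gain as the protease cuts the substrate; inhibitor potency against ADAM10 proteolytic activity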
# [13] = HEK293 cell viability, dose response, counter-screen for EBV LMP1 inhibitor project, dry powder, set 2 (AID 624374); type: functional
# [14] = LMP1-driven NF-kB reporter inhibition, dose response, cell-based, luciferase reporter, luminescence, dry powder, set 2 (AID 624376); type: functional
# INS1 = assay: beta cell apoptosis inhibitors, cytokine rescue, dose response, luminescence, retest (AID 449756); type: functional, cell-based; details: Rattus norvegicus;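 further: cell death triggered by IL-1 beta plus TNF-alpha plus IFN-gamma mixture; protective hits raise ATP signal compared with cytokine alone wells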
# Beta-galactosidase = Beta-galactosidase (Escherichia coli, UniProt Q8VNN2); assay: Dose response counterscreen for EBI2 assay utilizing the enzyme, b-galactosidase.; type: functional
# Chain of Beta-galactosidase (Q8VNN2 whole entry): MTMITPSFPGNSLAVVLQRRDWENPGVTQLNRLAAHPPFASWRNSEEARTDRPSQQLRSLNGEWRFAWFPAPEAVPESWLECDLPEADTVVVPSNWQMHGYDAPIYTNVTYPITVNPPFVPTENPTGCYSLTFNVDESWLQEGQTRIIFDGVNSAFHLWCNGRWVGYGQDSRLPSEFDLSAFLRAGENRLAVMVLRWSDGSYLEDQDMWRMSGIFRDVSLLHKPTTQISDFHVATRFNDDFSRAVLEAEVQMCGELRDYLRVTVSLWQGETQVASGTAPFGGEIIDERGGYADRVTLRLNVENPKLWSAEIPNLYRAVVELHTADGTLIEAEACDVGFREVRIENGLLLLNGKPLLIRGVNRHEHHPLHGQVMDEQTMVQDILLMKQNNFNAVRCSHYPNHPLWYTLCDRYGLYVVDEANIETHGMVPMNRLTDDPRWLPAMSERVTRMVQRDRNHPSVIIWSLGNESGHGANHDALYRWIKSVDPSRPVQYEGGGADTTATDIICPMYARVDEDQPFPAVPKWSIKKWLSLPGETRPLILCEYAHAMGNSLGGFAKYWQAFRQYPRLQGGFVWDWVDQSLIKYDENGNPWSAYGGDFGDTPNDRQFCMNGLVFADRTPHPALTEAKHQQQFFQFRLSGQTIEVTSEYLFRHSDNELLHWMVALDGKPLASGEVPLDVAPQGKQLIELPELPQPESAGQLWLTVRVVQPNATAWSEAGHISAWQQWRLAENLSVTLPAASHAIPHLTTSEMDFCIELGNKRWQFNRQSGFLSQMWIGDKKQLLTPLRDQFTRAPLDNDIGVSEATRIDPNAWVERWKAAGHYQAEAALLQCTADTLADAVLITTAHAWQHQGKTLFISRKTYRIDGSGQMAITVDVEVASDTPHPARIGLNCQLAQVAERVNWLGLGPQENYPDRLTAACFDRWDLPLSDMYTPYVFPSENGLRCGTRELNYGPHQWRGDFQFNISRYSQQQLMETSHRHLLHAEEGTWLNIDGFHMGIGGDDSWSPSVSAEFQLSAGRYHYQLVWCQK
# T1 sequence (Q9P0U3 whole entry, the tested form may be a part): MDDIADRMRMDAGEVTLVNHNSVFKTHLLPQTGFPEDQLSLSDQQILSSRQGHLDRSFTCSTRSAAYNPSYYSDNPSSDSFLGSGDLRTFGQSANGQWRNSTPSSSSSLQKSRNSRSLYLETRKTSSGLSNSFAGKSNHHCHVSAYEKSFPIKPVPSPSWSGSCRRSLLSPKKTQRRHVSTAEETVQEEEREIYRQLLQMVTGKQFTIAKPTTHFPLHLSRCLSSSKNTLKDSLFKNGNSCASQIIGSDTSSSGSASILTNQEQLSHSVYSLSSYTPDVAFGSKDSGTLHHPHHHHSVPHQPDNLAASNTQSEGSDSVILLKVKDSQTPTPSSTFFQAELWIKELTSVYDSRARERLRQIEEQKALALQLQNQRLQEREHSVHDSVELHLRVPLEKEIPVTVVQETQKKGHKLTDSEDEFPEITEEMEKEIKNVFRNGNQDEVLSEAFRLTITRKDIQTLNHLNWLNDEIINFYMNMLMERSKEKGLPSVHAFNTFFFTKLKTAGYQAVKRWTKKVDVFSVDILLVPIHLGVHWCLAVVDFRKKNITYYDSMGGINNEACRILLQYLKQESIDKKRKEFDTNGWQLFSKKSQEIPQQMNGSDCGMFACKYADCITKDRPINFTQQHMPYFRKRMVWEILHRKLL
# T2 sequence (Q96RJ0 whole entry): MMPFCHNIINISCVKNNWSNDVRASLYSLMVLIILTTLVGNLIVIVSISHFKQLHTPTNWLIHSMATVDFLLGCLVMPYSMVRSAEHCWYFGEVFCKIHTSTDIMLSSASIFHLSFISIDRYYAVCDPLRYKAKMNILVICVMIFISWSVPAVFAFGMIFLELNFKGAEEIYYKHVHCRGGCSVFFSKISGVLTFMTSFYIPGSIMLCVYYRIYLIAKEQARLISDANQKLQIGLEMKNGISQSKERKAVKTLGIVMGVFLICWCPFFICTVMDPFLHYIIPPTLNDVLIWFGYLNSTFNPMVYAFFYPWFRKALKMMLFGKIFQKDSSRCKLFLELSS
# Chain of Metabotropic glutamate receptor 3 (P31422 whole entry): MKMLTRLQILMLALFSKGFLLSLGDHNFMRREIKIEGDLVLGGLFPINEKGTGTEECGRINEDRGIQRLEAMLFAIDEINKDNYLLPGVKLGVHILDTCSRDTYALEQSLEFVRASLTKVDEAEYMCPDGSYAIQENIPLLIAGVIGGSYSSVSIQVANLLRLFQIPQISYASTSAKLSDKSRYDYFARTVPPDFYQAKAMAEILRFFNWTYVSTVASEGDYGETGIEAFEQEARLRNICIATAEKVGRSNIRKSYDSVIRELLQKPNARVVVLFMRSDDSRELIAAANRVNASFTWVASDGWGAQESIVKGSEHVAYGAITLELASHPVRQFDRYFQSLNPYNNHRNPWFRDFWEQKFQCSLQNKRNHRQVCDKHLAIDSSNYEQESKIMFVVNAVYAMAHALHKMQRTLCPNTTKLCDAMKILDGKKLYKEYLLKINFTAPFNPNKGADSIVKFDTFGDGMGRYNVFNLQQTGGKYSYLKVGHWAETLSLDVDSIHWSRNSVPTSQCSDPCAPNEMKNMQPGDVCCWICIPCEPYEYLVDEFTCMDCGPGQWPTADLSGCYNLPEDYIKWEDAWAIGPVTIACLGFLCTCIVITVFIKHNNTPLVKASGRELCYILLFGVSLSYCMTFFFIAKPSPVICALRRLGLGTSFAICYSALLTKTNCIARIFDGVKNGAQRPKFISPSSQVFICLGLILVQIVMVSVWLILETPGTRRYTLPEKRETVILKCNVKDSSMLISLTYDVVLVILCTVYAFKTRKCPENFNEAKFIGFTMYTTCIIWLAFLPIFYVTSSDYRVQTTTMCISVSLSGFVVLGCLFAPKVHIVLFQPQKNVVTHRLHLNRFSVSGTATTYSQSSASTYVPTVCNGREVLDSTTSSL
# Chain of Scavenger receptor class B member 1 (Q61009 whole entry, the tested form may be a part): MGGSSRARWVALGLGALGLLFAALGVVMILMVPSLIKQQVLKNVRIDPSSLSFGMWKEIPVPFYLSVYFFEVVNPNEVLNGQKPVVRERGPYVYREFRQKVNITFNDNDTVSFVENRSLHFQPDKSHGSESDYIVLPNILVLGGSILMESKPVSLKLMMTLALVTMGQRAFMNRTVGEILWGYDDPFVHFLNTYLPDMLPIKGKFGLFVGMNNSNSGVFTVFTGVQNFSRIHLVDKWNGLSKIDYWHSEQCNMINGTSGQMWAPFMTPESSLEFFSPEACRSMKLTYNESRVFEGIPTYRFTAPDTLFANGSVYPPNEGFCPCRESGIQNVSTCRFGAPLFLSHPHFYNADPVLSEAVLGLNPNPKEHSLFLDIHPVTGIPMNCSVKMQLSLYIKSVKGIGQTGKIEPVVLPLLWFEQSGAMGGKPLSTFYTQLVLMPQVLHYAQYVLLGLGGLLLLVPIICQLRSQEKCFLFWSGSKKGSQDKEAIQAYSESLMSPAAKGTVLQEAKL
# Chain of Disintegrin and metalloproteinase domain-containing protein 17 (P78536 whole entry, the tested form may be a part): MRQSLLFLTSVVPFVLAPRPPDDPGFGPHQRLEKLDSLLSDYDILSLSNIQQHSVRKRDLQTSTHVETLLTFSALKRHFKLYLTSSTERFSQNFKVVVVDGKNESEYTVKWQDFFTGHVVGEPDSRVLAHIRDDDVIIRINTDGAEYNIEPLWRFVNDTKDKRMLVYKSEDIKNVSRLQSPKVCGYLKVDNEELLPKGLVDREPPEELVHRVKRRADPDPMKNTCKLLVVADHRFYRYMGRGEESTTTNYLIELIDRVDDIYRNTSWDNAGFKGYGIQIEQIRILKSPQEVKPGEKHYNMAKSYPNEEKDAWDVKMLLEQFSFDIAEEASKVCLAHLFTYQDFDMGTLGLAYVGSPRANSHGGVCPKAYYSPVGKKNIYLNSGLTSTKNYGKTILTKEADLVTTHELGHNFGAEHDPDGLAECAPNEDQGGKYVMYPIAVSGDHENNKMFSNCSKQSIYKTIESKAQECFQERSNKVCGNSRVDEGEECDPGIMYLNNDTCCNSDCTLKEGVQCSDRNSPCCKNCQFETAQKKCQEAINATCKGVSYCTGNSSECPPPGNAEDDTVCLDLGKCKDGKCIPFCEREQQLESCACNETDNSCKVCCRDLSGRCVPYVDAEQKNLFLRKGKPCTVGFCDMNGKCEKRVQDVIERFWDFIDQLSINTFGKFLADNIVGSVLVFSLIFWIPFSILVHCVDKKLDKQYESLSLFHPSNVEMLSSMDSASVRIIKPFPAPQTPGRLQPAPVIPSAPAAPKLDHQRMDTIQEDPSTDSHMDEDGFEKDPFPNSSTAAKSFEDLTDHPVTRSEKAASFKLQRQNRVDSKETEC
# Chain of COUP transcription factor 2 (P24468 whole entry): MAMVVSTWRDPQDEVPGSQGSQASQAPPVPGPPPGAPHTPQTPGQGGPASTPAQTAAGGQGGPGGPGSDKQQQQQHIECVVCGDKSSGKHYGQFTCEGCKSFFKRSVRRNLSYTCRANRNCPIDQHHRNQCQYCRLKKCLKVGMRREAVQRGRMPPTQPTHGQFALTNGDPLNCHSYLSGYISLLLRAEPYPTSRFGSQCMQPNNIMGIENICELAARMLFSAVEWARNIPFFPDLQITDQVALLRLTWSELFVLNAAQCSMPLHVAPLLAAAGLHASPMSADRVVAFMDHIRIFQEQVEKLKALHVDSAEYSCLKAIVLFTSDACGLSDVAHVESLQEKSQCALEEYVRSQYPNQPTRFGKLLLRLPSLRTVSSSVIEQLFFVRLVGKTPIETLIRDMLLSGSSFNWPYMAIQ
smiles,measurement,setting,value
COc1ccc2sc(/C=C/c3ccccc3O)[n+](C)c2c1,IC50,[1],14.3 µM (active)
same,IC50,[2],10.2 µM (active)
CC(=NCCc1ccc(O)cc1)C1=C(O)OCC1,EC50,cells [3],> 29.9 µM (inactive)
same,IC50,[4],9.27 µM (active)
same,IC50,cells [5],> 29.9 µM (inactive)
same,EC50,[6],2.05 µM (active)
Cc1nn(C)c(C)c1NC(=O)COc1ccc(Cl)cc1Br,IC50,[7],8.76 µM (active)
CN1CCN(C)/C(=N/c2cc(Cl)c(C#N)cc2C(=O)Nc2ccccc2)C1,IC50,[8],< 0.26 µM (active)
COc1ccc(C#Cc2ccc(C(=O)N3CCCC4(C3)OCCO4)cc2)cc1,IC50,[9],7.17 µM
CC(C)NC(=O)Nc1ccc2c(c1)C(=O)N([C@@H](C)CO)C[C@H](C)[C@H](CN(C)S(=O)(=O)c1ccc(Cl)cc1)O2,AC50,[10],> 70 µM (inactive)
O=C(CC1S/C(=N\c2ccccc2)N(Cc2ccccn2)C1=O)Nc1ccc(Br)cc1 (stereo unspecified),IC50,[11],> 69.5 µM (inactive)
same,IC50,[12],37.4 µM (inactive)
CO[C@H](CN(C)S(=O)(=O)c1cccc(Cl)c1)[C@@H](C)CN([C@H](C)CO)S(=O)(=O)c1ccc(Cl)cc1,AbsAC35,[13],104.79 µM
same,AbsAC35,[14],36.95 µM
COc1cc(-c2nc3ccc(C)cn3c2NCc2ccccc2)ccc1-c1cccc(Cl)c1,AC50,INS1,5.14 µM (active)
same,IC50,Beta-galactosidase,96 µM (inactive)
